Measured values reported in patent publication US20100075907A1, “NEUROMEDIN U RECEPTOR AGONISTS AND USES THEREOF” (priority 2006, published 2010).
Residues, ends and D or L forms follow the SMILES beside them. No end group written: not given here. *: point of attachment. Succinimide(1-Et,3-yl) = CCN1C(=O)CC(*)C1=O; Palmitoyl = CCCCCCCCCCCCCCCC(=O)*

Legend:
rat NMUR1-ATG = target: T1, rat NMUR1-ATG (Rattus norvegicus, UniProt Q9JJI5); assay: FLIPR calcium mobilization assay, rat NMUR1-ATG; type: cell-based; parameters: expressed in transfected cells; host or cells: FLP-In CHO or HEK-293 FLP-In cells (pcDNA5); conditions: for % Activity: maximum response at 1 μM compared to hNMU-25; for % Activity / EC50: rat NMUR1-ATG; for EC50: FLIPR
T1 sequence (Q9JJI5 1-425): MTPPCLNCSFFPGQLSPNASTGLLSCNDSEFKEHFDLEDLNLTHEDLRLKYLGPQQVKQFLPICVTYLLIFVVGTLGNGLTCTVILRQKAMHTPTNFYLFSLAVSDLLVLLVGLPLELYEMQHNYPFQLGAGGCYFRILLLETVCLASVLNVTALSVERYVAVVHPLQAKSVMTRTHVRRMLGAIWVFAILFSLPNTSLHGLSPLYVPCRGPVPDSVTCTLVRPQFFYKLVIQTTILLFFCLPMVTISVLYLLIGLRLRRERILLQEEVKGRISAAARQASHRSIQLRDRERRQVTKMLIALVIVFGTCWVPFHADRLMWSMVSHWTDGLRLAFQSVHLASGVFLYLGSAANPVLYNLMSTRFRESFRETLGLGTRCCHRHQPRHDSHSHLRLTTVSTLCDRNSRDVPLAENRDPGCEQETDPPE
From the text: (§1) Human, mouse or rat cDNAs encoding NMUR1 or NMUR2 (as described in Howard et al. Nature 406: 70-74 (2000) were subcloned in pcDNA5 (Invitrogen) and transfected into FLP-In CHO cells and HEK-293 FLP-In cells purchased from Invitrogen (Carlsbad, Calif.) using lipofectamine (Invitrogen). The Flp-In system allows integration and expression of a particular gene of interest at a specific genomic location utilizing the Flp recombinase from yeast. The transfected cells were selected by growth in medium containing 200 μg/mL hygromycin (Invitrogen). Populations were frozen at early passage numbers, and these stocks were used for further studies. Stable clones that expressed the mRNAs were identified functionally by FLIPR as well as by RT-PCR. […] Two different rodent NMUR1 cell lines were thus generated: one with the codon as predicted from the genomic databases and another cell line with an engineered methionine (ATG) as the start codon. Additionally, stable cell lines expressing the human receptors were generated in HEK-293/aeq17 cells which stably express the aequorin gene under the CMV promoter. The human NMUR2 cDNA was cloned into pcDNA3.1 and human NMUR1 was subcloned into pIRES-puro (Clontech, Mountain View, Calif.), after transfection cells were selected in media containing G418 and either hygromycin (NMUR2) or puromycin (NMUR1).
(§2) The NMU receptors signal primarily through Gαq/11 proteins; therefore calcium mobilization assays can be utilized for functional activity.
(§3) Stable cell lines expressing human and or rodent NMUR1 or human NMUR2 receptors were plated at a density of 12,000 cells per well overnight on poly-lysine coated 384-well black-walled plates. The following day, the media was removed from the plates and the cells were subsequently loaded with Fluo-3 (Molecular Probes), a calcium sensitive dye, diluted in FLIPR buffer (1× Hank's buffered saline containing 20 mM HEPES, 0.1% BSA, 2.5 mM probenecid (Sigma) and 1.6 mM TR40). All reagents are from Invitrogen unless otherwise noted. Peptide stocks were resuspended in DMSO at a stock concentration of 2 mM and diluted in FLIPR buffer on the day of the experiment to a 4 μM working stock solution.
(§4) After a 90 minute incubation at room-temperature, cell plates were loaded onto a FLIPR (Molecular Devices) to monitor cellular fluorescence (excitation=488 nm; emission=540 nm) before and after compound/peptide addition. Eight to twelve point dose responses were tested on NMUR-expressing cell lines using FLIPR with 1 μM peptide as the highest dose. The response after peptide addition was taken as the maximum fluorescence units minus the fluorescence immediately prior to stimulation for each well. EC50 values were calculated using GraphPad Prism (San Diego, Calif.) software.
(§5) In vitro responses of Neuromedin U receptor agonists (NMU1 to NMU25) in the FLIPR assay for human (Table 3), mouse (Table 4) and rat (Table 5) NMUR1 and NMUR2. EC50s are reported in nM values. Percent activity refers to the maximum response at 1 μM compared to the hNMU-25 response at the same concentration. NT=not tested.

Mouse NMUR1-CTG = target: T2, Mouse NMUR1-CTG (Mus musculus, UniProt O55040); assay: FLIPR calcium mobilization assay, mouse NMUR1-CTG; type: cell-based; parameters: expressed in transfected cells; host or cells: FLP-In CHO or HEK-293 FLP-In cells (pcDNA5); conditions: for % Activity: maximum response at 1 μM compared to hNMU-25; for % Activity / EC50: mouse NMUR1-CTG; for EC50: FLIPR
T2 sequence (O55040 1-428): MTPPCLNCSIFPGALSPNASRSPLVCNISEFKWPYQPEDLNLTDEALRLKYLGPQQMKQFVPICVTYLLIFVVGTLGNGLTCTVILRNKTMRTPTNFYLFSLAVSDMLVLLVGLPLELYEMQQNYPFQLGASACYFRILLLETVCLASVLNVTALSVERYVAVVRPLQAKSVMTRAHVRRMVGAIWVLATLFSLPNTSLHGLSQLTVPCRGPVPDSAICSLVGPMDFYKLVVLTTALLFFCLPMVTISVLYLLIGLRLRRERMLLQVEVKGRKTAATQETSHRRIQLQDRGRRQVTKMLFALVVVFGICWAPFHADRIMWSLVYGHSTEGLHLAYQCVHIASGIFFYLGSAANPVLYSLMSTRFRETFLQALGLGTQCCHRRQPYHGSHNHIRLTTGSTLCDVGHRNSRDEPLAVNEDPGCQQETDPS
From the text: as §1, §2, §3, §4, §5

CCN1C(=O)CC(SC[C@H](NC(C)=O)C(=O)N[C@@H](CSC2CC(=O)N(CC)C2=O)C(=O)N[C@@H](Cc2ccccc2)C(=O)N[C@@H](CCCNC(=N)N)C(=O)N[C@H](C(=O)N[C@@H](CC(=O)O)C(=O)N[C@@H](CCC(=O)O)C(=O)N[C@@H](CCC(=O)O)C(=O)N[C@@H](Cc2ccccc2)C(=O)N[C@@H](CCC(N)=O)C(=O)N[C@@H](CO)C(=O)N2CCC[C@H]2C(=O)N[C@@H](Cc2ccccc2)C(=O)N[C@@H](C)C(=O)N[C@@H](CO)C(=O)N[C@@H](CCC(N)=O)C(=O)N[C@@H](CO)C(=O)N[C@@H](CCCNC(=N)N)C(=O)NCC(=O)N[C@@H](Cc2ccc(O)cc2)C(=O)N[C@@H](Cc2ccccc2)C(=O)N[C@@H](CC(C)C)C(=O)N[C@@H](Cc2ccccc2)C(=O)N[C@@H](CCCNC(=N)N)C(=O)N2CCC[C@H]2C(=O)N[C@@H](CCCNC(=N)N)C(=O)N[C@@H](CC(N)=O)C(N)=O)C(C)C)C1=O (stereo partly shown) [NMU22] (Ac-C(Succinimide(1-Et,3-yl))C(Succinimide(1-Et,3-yl))FRVDEEFQSPFASQSRGYFLFRPRN-NH2)
% Activity (rat NMUR1-ATG): 100%
% Activity (Mouse NMUR1-CTG): 100%

CCCCCCCCCCCCCCCC(=O)N[C@@H](CSC1CC(=O)N(CC)C1=O)C(=O)N[C@@H](Cc1ccccc1)C(=O)N[C@@H](CCCNC(=N)N)C(=O)N[C@H](C(=O)N[C@@H](CC(=O)O)C(=O)N[C@@H](CCC(=O)O)C(=O)N[C@@H](CCC(=O)O)C(=O)N[C@@H](Cc1ccccc1)C(=O)N[C@@H](CCC(N)=O)C(=O)N[C@@H](CO)C(=O)N1CCC[C@H]1C(=O)N[C@@H](Cc1ccccc1)C(=O)N[C@@H](C)C(=O)N[C@@H](CO)C(=O)N[C@@H](CCC(N)=O)C(=O)N[C@@H](CO)C(=O)N[C@@H](CCCNC(=N)N)C(=O)NCC(=O)N[C@@H](Cc1ccc(O)cc1)C(=O)N[C@@H](Cc1ccccc1)C(=O)N[C@@H](CC(C)C)C(=O)N[C@@H](Cc1ccccc1)C(=O)N[C@@H](CCCNC(=N)N)C(=O)N1CCC[C@H]1C(=O)N[C@@H](CCCNC(=N)N)C(=O)N[C@@H](CC(N)=O)C(N)=O)C(C)C (stereo partly shown) [NMU24] (Palmitoyl-C(Succinimide(1-Et,3-yl))FRVDEEFQSPFASQSRGYFLFRPRN-NH2)
% Activity (rat NMUR1-ATG): 80.8%
% Activity (Mouse NMUR1-CTG): 56.1%

Ac-C2FQSPFASQSRGYFLFRPRN-CONH2 ({Ac-C(PEG 40 kDa)}-FQSPFASQSRGYFLFRPRN-NH2; not fully specified; printed as Ac-C2FQSPFASQSRGYFLFRPRN-CONH2) [NMU20, C2 = Cys(PEG)240 kDa]
EC50 (rat NMUR1-ATG): 7.2 nM
EC50 (Mouse NMUR1-CTG): 480 nM
% Activity (Mouse NMUR1-CTG): 65.4%

Ac-C4-C4-FRVDEEFQSPFASQSRGYFLFRPRN-CONH2 ({Ac-C(PEG 20 kDa)-C(PEG 20 kDa)}-FRVDEEFQSPFASQSRGYFLFRPRN-NH2) [NMU23, C4 = Cys(PEG)20 kDa]
EC50 (rat NMUR1-ATG): 127 nM
% Activity (rat NMUR1-ATG): 76.4%
EC50 (Mouse NMUR1-CTG): 770 nM
% Activity (Mouse NMUR1-CTG): 50.9%

Ac-C4FRVDEEFQSPFASQSRGYFLFRPRN-CONH2 ({Ac-C(PEG 20 kDa)}-FRVDEEFQSPFASQSRGYFLFRPRN-NH2) [NMU21, C4 = Cys(PEG)20 kDa]
EC50 (rat NMUR1-ATG): 19.5 nM
% Activity (rat NMUR1-ATG): 99.9%
EC50 (Mouse NMUR1-CTG): 56.3 nM
% Activity (Mouse NMUR1-CTG): 90.8%

Ac-FRVDEEFQSPFASQSRGYFLFRPRN-NH2 [NMU2]
% Activity (rat NMUR1-ATG): 89.2%
% Activity (Mouse NMUR1-CTG): 100%

Ac-FRVDEEFQSPFASQSRPYFLFRPRN-NH2 [NMU5]
% Activity (rat NMUR1-ATG): 100%
% Activity (Mouse NMUR1-CTG): 100%

GYFLFRPRN-NH2 [NMU3]
% Activity (rat NMUR1-ATG): 100%
% Activity (Mouse NMUR1-CTG): 100%

H-FRVDEEFQSPFASQSRGYFLFRPRN-NH2 [hNMU-25, reference compound]
IC50 (rat NMUR1-ATG; functional data, rat R1-ATG): 1.3 nM
IC50 (Mouse NMUR1-CTG; functional data, mouse R1-CTG): 2.9 nM

H-FRVDEEFQSPFASQSRPYFLFRPRN-NH2 [NMU4]
% Activity (rat NMUR1-ATG): 100%
% Activity (Mouse NMUR1-CTG): 100%

Pam-C2FRVDEEFQSPFASQSRGYFLFRPRN-CONH2 ({Palmitoyl-C(PEG 40 kDa)}-FRVDEEFQSPFASQSRGYFLFRPRN-NH2) [NMU25, Pam = palmitoyl; C2 = Cys(PEG)240 kDa]
EC50 (rat NMUR1-ATG): 20.1 nM
% Activity (rat NMUR1-ATG): 99.6%
EC50 (Mouse NMUR1-CTG): 60.3 nM
